Source: ChEMBL document CHEMBL4837206, “Synthesis and biological evaluation of novel isoxazole-piperazine hybrids as potential anti-cancer agents with inhibitory effect on liver cancer stem cells” (Eur J Med Chem, 2021)
Blank lines part the entries; values can stand above or below the compound they belong to.

Assays:
Format in all cases: functional, cell-based
[1] = system: Huh-7; assay: Antiproliferative activity against human Huh-7 cells assessed as reduction in cell viability measured after 72 hrs by SRB assay; details: Huh-7, 72 h
[2] = system: Mahlavu; assay: Antiproliferative activity against human Mahlavu cells assessed as reduction in cell viability measured after 72 hrs by SRB assay
[3] = system: MCF7; assay: Antiproliferative activity against human MCF7 cells assessed as reduction in cell viability measured after 72 hrs by SRB assay; details: MCF7, 72 h

Structure (SMILES): N#Cc1cccc(COc2ccc(-c3cc(CN4CCN(C(=O)c5ccco5)CC4)no3)cc2)c1
- IC50 [1]: 2 µM
- IC50 [2]: 2.2 µM
- IC50 [3]: 1.9 µM

Structure (SMILES): Cc1ccc(COc2ccc(-c3cc(CN4CCN(Cc5ccc(C(F)(F)F)cc5)CC4)no3)cc2)cc1
- IC50 [1]: 1.5 µM
- IC50 [2]: 7.5 µM
- IC50 [3]: 1.2 µM

Structure (SMILES): Fc1ccc(COc2ccc(-c3cc(CN4CCN(Cc5ccc(C(F)(F)F)cc5)CC4)no3)cc2)cc1
- IC50 [1]: 2 µM
- IC50 [2]: 3.1 µM
- IC50 [3]: 7.9 µM

Structure (SMILES): N#Cc1cccc(COc2ccc(-c3cc(CNC4CCN(Cc5ccccc5)CC4)no3)cc2)c1
- IC50 [1]: 2.5 µM
- IC50 [2]: 2.1 µM
- IC50 [3]: 2.5 µM

Structure (SMILES): N#Cc1cccc(COc2ccc(-c3cc(CN4CCN(CC5CCCO5)CC4)no3)cc2)c1 (configuration not stated)
- IC50 [1]: 4.2 µM
- IC50 [2]: 4.8 µM
- IC50 [3]: 8.4 µM

Structure (SMILES): N#Cc1cccc(COc2ccc(-c3cc(CN4CCN(Cc5ccccc5F)CC4)no3)cc2)c1
- IC50 [1]: 2.4 µM
- IC50 [2]: 2.3 µM
- IC50 [3]: 1.4 µM

Structure (SMILES): COc1cc(COc2ccc(-c3cc(CN4CCN(Cc5ccc(C(F)(F)F)cc5)CC4)no3)cc2)cc(OC)c1
- IC50 [1]: 1.5 µM
- IC50 [2]: 4.3 µM
- IC50 [3]: 0.1 µM

Structure (SMILES): N#Cc1cccc(COc2ccc(-c3cc(CNC4CCN(Cc5ccccc5)CC4)no3)cc2F)c1
- IC50 [1]: 2.3 µM
- IC50 [2]: 2.7 µM
- IC50 [3]: 2.7 µM

Structure (SMILES): CC(C)(C)OC(=O)N1CCN(Cc2cc(-c3ccc(OCc4cccc(C#N)c4)cc3)on2)CC1
- IC50 [1]: 6.1 µM
- IC50 [2]: 5.6 µM
- IC50 [3]: 3.8 µM

Structure (SMILES): CC(C)(C)OC(=O)N1CCC(NCc2cc(-c3ccc(OCc4cccc(C#N)c4)cc3)on2)CC1
- IC50 [1]: 1.5 µM
- IC50 [2]: 3 µM
- IC50 [3]: 2.8 µM

Structure (SMILES): N#Cc1cccc(COc2ccc(-c3cc(CN4CCN(Cc5ccc(F)cc5)CC4)no3)cc2)c1
- IC50 [1]: 1.6 µM
- IC50 [2]: 1.5 µM
- IC50 [3]: 1.8 µM

These reach a lower IC50 [1]. Values come first.

- IC50 [1]: 1 µM
- IC50 [3]: 2.8 µM
Structure (SMILES): FC(F)(F)c1ccc(CN2CCN(Cc3cc(-c4ccc(OCc5ccccc5Cl)cc4)on3)CC2)cc1
- IC50 [2]: 3.2 µM

- IC50 [1]: 0.9 µM
- IC50 [3]: 0.3 µM
Structure (SMILES): COc1ccccc1COc1ccc(-c2cc(CN3CCN(Cc4ccc(C(F)(F)F)cc4)CC3)no2)cc1
- IC50 [2]: 3.9 µM

- IC50 [1]: 0.8 µM
- IC50 [3]: 2 µM
Structure (SMILES): COc1cccc(COc2ccc(-c3cc(CN4CCN(Cc5ccc(C(F)(F)F)cc5)CC4)no3)cc2)c1
- IC50 [2]: 1.4 µM

- IC50 [1]: 0.6 µM
- IC50 [3]: 1.6 µM
Structure (SMILES): Cc1cc(C)cc(COc2ccc(-c3cc(CN4CCN(Cc5ccc(C(F)(F)F)cc5)CC4)no3)cc2)c1
- IC50 [2]: 6 µM

- IC50 [1]: 0.6 µM
- IC50 [3]: 0.7 µM
Structure (SMILES): Cc1cc(-c2cc(CN3CCN(Cc4ccc(C(F)(F)F)cc4)CC3)no2)ccc1OCc1cccc(C#N)c1
- IC50 [2]: 0.45 µM

- IC50 [1]: 0.5 µM
- IC50 [3]: 1.8 µM
Structure (SMILES): COc1cc(COc2ccc(-c3cc(CN4CCN(Cc5ccc(C(F)(F)F)cc5)CC4)no3)cc2)cc(OC)c1OC
- IC50 [2]: 5.8 µM

- IC50 [1]: 0.2 µM
- IC50 [3]: 1.4 µM
Structure (SMILES): FC(F)(F)c1ccc(CN2CCN(Cc3cc(-c4ccc(OCc5cccc(Cl)c5)cc4)on3)CC2)cc1
- IC50 [2]: 4.1 µM

- IC50 [1]: 0.1 µM
- IC50 [3]: 0.8 µM
Structure (SMILES): N#Cc1cccc(COc2ccc(-c3cc(CN4CCN(Cc5ccc(C(F)(F)F)cc5)CC4)no3)cc2)c1
- IC50 [2]: 10.6 µM
